According to patent publication US10000496B2, “Compositions useful for treating disorders related to kit and PDGFR” (BLUEPRINT MEDICINES CORPORATION, priority 2015, dated 2018):

Columns and labels:
D816V Kit = biological target: T1, D816V Kit (Homo sapiens, UniProt P10721, D816V); assay: Kit D816V assay at Km (Caliper electrophoretic mobility shift); details: D816V Kit 0.5 nM, 15 uM ATP (Km), 1 uM Srctide, 25 C, 90 minutes; read-out: Biochemical Activity D816V IC50
T1 construct: purchased Carna Bioscience 08-156
T1 sequence (P10721 26-976 D816V): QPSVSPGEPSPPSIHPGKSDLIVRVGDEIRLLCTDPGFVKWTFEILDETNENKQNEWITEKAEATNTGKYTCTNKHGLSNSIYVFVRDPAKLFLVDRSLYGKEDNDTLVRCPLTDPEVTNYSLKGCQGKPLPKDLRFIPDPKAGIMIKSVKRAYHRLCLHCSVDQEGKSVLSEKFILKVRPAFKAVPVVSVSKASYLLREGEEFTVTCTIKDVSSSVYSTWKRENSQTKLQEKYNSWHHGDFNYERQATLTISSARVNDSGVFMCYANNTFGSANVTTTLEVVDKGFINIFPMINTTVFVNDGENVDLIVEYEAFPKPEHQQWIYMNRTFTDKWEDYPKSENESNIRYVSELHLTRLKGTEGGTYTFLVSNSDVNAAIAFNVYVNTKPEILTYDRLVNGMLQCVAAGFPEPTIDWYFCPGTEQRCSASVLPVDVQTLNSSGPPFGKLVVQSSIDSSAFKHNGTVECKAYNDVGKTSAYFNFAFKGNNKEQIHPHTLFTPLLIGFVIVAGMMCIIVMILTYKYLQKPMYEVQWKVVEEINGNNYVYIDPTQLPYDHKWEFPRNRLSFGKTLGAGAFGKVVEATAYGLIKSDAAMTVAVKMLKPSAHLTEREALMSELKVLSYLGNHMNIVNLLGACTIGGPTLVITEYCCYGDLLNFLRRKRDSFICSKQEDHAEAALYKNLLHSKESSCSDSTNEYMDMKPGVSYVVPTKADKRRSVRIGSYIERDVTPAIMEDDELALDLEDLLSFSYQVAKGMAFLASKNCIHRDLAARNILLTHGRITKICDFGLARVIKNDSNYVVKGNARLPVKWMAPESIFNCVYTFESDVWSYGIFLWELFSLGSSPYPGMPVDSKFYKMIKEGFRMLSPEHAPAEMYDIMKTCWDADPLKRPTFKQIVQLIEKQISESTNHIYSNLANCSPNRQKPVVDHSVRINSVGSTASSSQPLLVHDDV
Procedure: In order to assess the activity of chemical compounds against the relevant kinase of interest, the Caliper LifeSciences electrophoretic mobility shift technology platform is used. Fluorescently labeled substrate peptide is incubated in the presence of kinase and ATP so that a […] proportion of the peptide is phosphorylated. At the end of the reaction, the mix of phosphorylated (product) and non-phosphorylated (substrate) peptides are passed through the microfluidic system of the Caliper EZ Reader 2, under an applied potential difference. The presence of the phosphate group on the product peptide provides a difference in mass and charge between those of the substrate peptide, resulting in a separation of the substrate and product pools in the sample. As the pools pass a LEDS within the instrument, these pools are detected and resolved as separate peaks. The ratio between these peaks therefore reflects the activity of the chemical matter at that concentration in that well, under those conditions.
Kit D816V assay at Km: In each well of a 384-well plate, 0.04 ng/ul (0.5 nM) of D816V Kit (Carna Bioscience 08-156) was incubated in a total of 12.5 ul of buffer (100 mM HEPES pH 7.5, 0.015% Brij 35, 10 mM MgCl2, 1 mM DTT) with 1 uM Srctide (5-FAM-GEEPLYWSFPAKKK-NH2) and 15 uM ATP at 25 C for 90 minutes in the presence or absence of a dosed concentration series of compound (1% DMSO final concentration). The reaction was stopped by the addition of 70 ul of Stop buffer (100 mM HEPES pH 7.5, 0.015% Brij 35, 35 mM EDTA and 0.2% of Coating Reagent 3 (Caliper Lifesciences)). The plate was then read on a Caliper EZReader 2 (protocol settings:—1.9 psi, upstream voltage—700, downstream voltage—3000, post sample sip 35s). Data was normalized to 0% and 100% inhibition controls and the IC50 or EC50 calculated using a 4-parameter fit using GraphPad Prism.

[1] = biological target: T2, Kit D816V in HMC1.2 cells (Homo sapiens, UniProt P10721, D816V/V560G); assay: HMC1.2 autophosphorylation assay (Kit autophosphorylation at tyrosine 719, AlphaLISA); format: cell-based; details: HMC1.2 mast cell leukemia cells (Kit V560G and D816V), phospho-Y719 c-Kit, 90 minutes; read-out: Cellular Activity IC50
T2 construct: endogenous in cells; host or cells: HMC1.2
T2 sequence (P10721 26-976 V560G/D816V): as the sequence (P10721 26-976 D816V) above, with V535G counted along it
Procedure: 10,000 HMC1.2 cells were incubated in 22 ul culture media (phenol-red free IMDM, no serum) in each well of a 384-well plate and serum starved overnight in a tissue culture incubator (5% CO2, 37° C.). A 10-point dose concentration series of compound (25 uM-95.4 pM) were then added to the cells in a volume of 3.1 ul to each well (0.25% DMSO final concentration). After 90 minutes, 6 ul of 5× AlphaLISA Lysis Buffer (Perkin Elmer) supplemented with a protease and phosphatase inhibitor cocktail (Cell Signaling Technologies) was added to each well and shaken at 450 rpm for 15 minutes at 4° C. 10 ul of phospho-Y719 c-Kit and total c-Kit antibodies (15 nM final concentration, Cell Signaling Technologies) and 50 ug/ml AlphaLISA rabbit acceptor beads (Perkin Elmer) were added to each well and shaken at 300 rpm at room temperature for 2 hours. 10 ul of 100 ug/ml streptavidin donor beads (Perkin Elmer) were added to each well, blocked from light with aluminum adhesive and shaken at 300 rpm at room temperature for 2 hours. Fluorescence signal was obtained on Envision (Perkin Elmer) by AlphaScreen 384 well HTS protocol. Data was normalized to 0% and 100% inhibition controls and the IC50 was calculated using Four Parameter Logistic IC50 curve fitting.
This cell line contains Kit mutated at positions V560G and D816V resulting in constitutive activation of the kinase. The following compounds were tested in an assay to measure direct inhibition of Kit D816V kinase activity by assaying Kit autophosphorylation at tyrosine 719 on the Kit protein.

| Structure (SMILES) | IC50 (D816V Kit) | IC50 [1] |
| --- | --- | --- |
| Cn1cc(-c2cc3c(-c4ccc(NS(C)(=O)=O)cc4)ncnn3c2)cn1 [Compound 1] | 1.01 to 10 nM | 1000 to 10000 nM |
| CC(C)S(=O)(=O)Nc1ccc(-c2ncnn3cc(-c4cnn(C)c4)cc23)cc1 [Compound 2] | 10 to 100 nM | > 10000 nM |
| Cn1cc(-c2cc3c(-c4ccc(NC(=O)Cc5ccccc5)cc4)ncnn3c2)cn1 [Compound 3] | 1.01 to 10 nM | 10 to 100 nM |
| Cn1cc(-c2cc3c(-c4ccc(NC(=O)Cc5cccnc5)cc4)ncnn3c2)cn1 [Compound 4] | 1.01 to 10 nM | 1000 to 10000 nM |
| Cn1cc(-c2cc3c(-c4ccc(NC(=O)Cc5ccccn5)cc4)ncnn3c2)cn1 [Compound 5] | 10 to 100 nM | 1000 to 10000 nM |
| Cn1cc(CC(=O)Nc2ccc(-c3ncnn4cc(-c5cnn(C)c5)cc34)cc2)cn1 [Compound 6] | 10 to 100 nM | 1000 to 10000 nM |
| Cn1cc(-c2cc3c(-c4ccc(NC(=O)NCc5ccccc5)cc4)ncnn3c2)cn1 [Compound 9, 1-benzyl-3-(4-(6-(1-methyl-1H-pyrazol-4-yl)pyrrolo[1,2-f][1,2,4]triazin-4-yl)phenyl)urea] | 10 to 100 nM | 100 to 1000 nM |
| Cn1cc(-c2cc3c(-c4ccc(NS(=O)(=O)c5ccccc5)cc4)ncnn3c2)cn1 [Compound 13] | 1.01 to 10 nM | 100 to 1000 nM |
| CN(C)C(=O)c1ccc(-c2cc3c(-c4ccc(NS(C)(=O)=O)cc4)ncnn3c2)cc1 [Compound 14] | 1.01 to 10 nM | 100 to 1000 nM |
| COC(C(=O)Nc1ccc(-c2ncnn3cc(-c4cnn(C)c4)cc23)cc1)c1ccccc1 (stereo not shown) [Compound 15] | 1.01 to 10 nM |  |
| CS(=O)(=O)Nc1ccc(-c2ncnn3cc(-c4ccc(S(C)(=O)=O)cc4)cc23)cc1 [Compound 16] | 1.01 to 10 nM | 100 to 1000 nM |
| Cn1cc(-c2cc3c(-c4ccc(NC(=O)Cc5ccc(Cl)nc5)cc4)ncnn3c2)cn1 [Compound 20] | 1.01 to 10 nM | 10 to 100 nM |
| Cc1ccc(S(=O)(=O)Nc2ccc(-c3ncnn4cc(-c5cnn(C)c5)cc34)cc2)cc1 [Compound 22] | 1.01 to 10 nM | 10 to 100 nM |
| Cn1cc(-c2cc3c(-c4ccc(NC(=O)Cc5c[nH]c6ccccc56)cc4)ncnn3c2)cn1 [Compound 23] | 1.01 to 10 nM | 10 to 100 nM |
| Cn1cc(-c2cc3c(-c4ccc(NS(=O)(=O)c5ccc(F)cc5)cc4)ncnn3c2)cn1 [Compound 24] | 1.01 to 10 nM | 100 to 1000 nM |
| Cn1cc(-c2cc3c(-c4ccc(NS(=O)(=O)CC5COCCO5)cc4)ncnn3c2)cn1 (stereo not shown) [Compound 25] | 10 to 100 nM | 1000 to 10000 nM |
| Cn1cc(-c2cc3c(-c4ccc(NS(=O)(=O)c5ccc(C#N)cc5)cc4)ncnn3c2)cn1 [Compound 26] | 1.01 to 10 nM | 1000 to 10000 nM |
| O=C(Cc1ccc(Cl)cc1)Nc1ccc(-c2ncnn3cc(-c4ccc(F)cc4)cc23)cc1 [Compound 27] | 10 to 100 nM | 1000 to 10000 nM |
| COc1ccc(S(=O)(=O)Nc2ccc(-c3ncnn4cc(-c5cnn(C)c5)cc34)cc2)cc1 [Compound 35] | 1.01 to 10 nM | 100 to 1000 nM |
| Cn1cc(-c2cc3c(-c4ccc(NS(=O)(=O)c5cccc(Cl)c5)cc4)ncnn3c2)cn1 [Compound 37] | 10 to 100 nM | 100 to 1000 nM |
| Cn1cc(-c2cc3c(-c4ccc(NS(=O)(=O)c5ccccc5Cl)cc4)ncnn3c2)cn1 [Compound 38] | 10 to 100 nM | 1000 to 10000 nM |
| Cn1cc(-c2cc3c(-c4ccc(NS(=O)(=O)Cc5ccc(C#N)cc5)cc4)ncnn3c2)cn1 [Compound 40] | < 1 nM | 10 to 100 nM |

Second part, the compound after the results:

| IC50 (D816V Kit) | IC50 [1] | Structure (SMILES) |
| --- | --- | --- |
| 10 to 100 nM |  | Cn1cc(-c2cc3c(-c4ccc(NC(=O)c5ccc(C#N)cc5)cc4)ncnn3c2)cn1 [Compound 7] |
| 1.01 to 10 nM | 10 to 100 nM | Cc1ccc(CC(=O)Nc2ccc(-c3ncnn4cc(-c5cnn(C)c5)cc34)cc2)cc1 [Compound 8] |
| < 1 nM |  | Cn1cc(-c2cc3c(-c4ccc(NC(=O)C(O)c5ccccc5)cc4)ncnn3c2)cn1 (stereo not shown) [Compound 10] |
| 1.01 to 10 nM | 10 to 100 nM | Cn1cc(-c2cc3c(-c4ccc(NC(=O)Cc5ccc(F)cc5)cc4)ncnn3c2)cn1 [Compound 11] |
| > 100 nM |  | Cn1cc(-c2cc3c(-c4ccc(NC(=O)c5ccc(Cl)cc5)cc4)ncnn3c2)cn1 [Compound 12] |
| 1.01 to 10 nM | 10 to 100 nM | Cn1cc(-c2cc3c(-c4ccc(NC(=O)Cc5ccc(Cl)cc5)cc4)ncnn3c2)cn1 [Compound 17] |
| 1.01 to 10 nM | 100 to 1000 nM | Cn1cc(-c2cc3c(-c4ccc(NC(=O)Cc5cccc(Cl)c5)cc4)ncnn3c2)cn1 [Compound 18] |
| 1.01 to 10 nM | 100 to 1000 nM | Cn1cc(-c2cc3c(-c4ccc(NC(=O)Cc5ccccc5Cl)cc4)ncnn3c2)cn1 [Compound 19] |
| > 100 nM |  | Cn1cc(-c2cc3c(-c4ccc(NC(=O)Nc5ccc(Cl)cc5)cc4)ncnn3c2)cn1 [Compound 21] |
| 1.01 to 10 nM | < 10 nM | C[C@@H](C(=O)Nc1ccc(-c2ncnn3cc(-c4cnn(C)c4)cc23)cc1)c1ccc(Cl)cc1 [Compound 28] |
| 1.01 to 10 nM | < 10 nM | CC(C(=O)Nc1ccc(-c2ncnn3cc(-c4cnn(C)c4)cc23)cc1)c1ccc(Cl)cc1 (stereo not shown) [Compound 29] |
| 10 to 100 nM | 100 to 1000 nM | C[C@H](C(=O)Nc1ccc(-c2ncnn3cc(-c4cnn(C)c4)cc23)cc1)c1ccc(Cl)cc1 [Compound 30] |
| 1.01 to 10 nM | < 10 nM | Cn1cc(-c2cc3c(-c4ccc(NC(=O)C(N)c5ccc(Cl)cc5)cc4)ncnn3c2)cn1 (stereo not shown) [Compound 31, 2-amino-2-(4-chlorophenyl)-N-(4-(6-(1-methyl-1H-pyrazol-4-yl)pyrrolo[1,2-f][1,2,4]triazin-4-yl)phenyl)acetamide] |
| < 1 nM | < 10 nM | Cn1cc(-c2cc3c(-c4ccc(NC(=O)[C@H](O)c5ccc(Cl)cc5)cc4)ncnn3c2)cn1 [Compound 32, 2-(4-chlorophenyl)-2-hydroxy-N-(4-(6-(1-methyl-1H-pyrazol-4-yl)pyrrolo[1,2-f][1,2,4]triazin-4-yl)phenyl)acetamide] |
| 1.01 to 10 nM | < 10 nM | Cn1cc(-c2cc3c(-c4ccc(NC(=O)C(O)c5ccc(Cl)cc5)cc4)ncnn3c2)cn1 (stereo not shown) [Compound 33, 2-(4-chlorophenyl)-2-hydroxy-N-(4-(6-(1-methyl-1H-pyrazol-4-yl)pyrrolo[1,2-f][1,2,4]triazin-4-yl)phenyl)acetamide] |
| 1.01 to 10 nM | 10 to 100 nM | Cn1cc(-c2cc3c(-c4ccc(NC(=O)[C@@H](O)c5ccc(Cl)cc5)cc4)ncnn3c2)cn1 [Compound 34, 2-(4-chlorophenyl)-2-hydroxy-N-(4-(6-(1-methyl-1H-pyrazol-4-yl)pyrrolo[1,2-f][1,2,4]triazin-4-yl)phenyl)acetamide] |
| < 1 nM | 10 to 100 nM | Cn1cc(-c2cc3c(-c4ccc(NS(=O)(=O)c5ccc(Cl)cc5)cc4)ncnn3c2)cn1 [Compound 36] |
| 10 to 100 nM | 100 to 1000 nM | Cn1cc(-c2cc3c(-c4ccc(NC(=O)C5(c6ccc(Cl)cc6)CC5)cc4)ncnn3c2)cn1 [Compound 39] |
| < 1 nM | 10 to 100 nM | Cn1cc(-c2cc3c(-c4ccc(NC(=O)C(C)(C)c5ccc(Cl)cc5)cc4)ncnn3c2)cn1 [Compound 41, 2-(4-chlorophenyl)-2-methyl-N-(4-(6-(1-methyl-1H-pyrazol-4-yl)pyrrolo[1,2-f][1,2,4]triazin-4-yl)phenyl)propanamide] |
| 1.01 to 10 nM | < 10 nM | CC[C@@H](C(=O)Nc1ccc(-c2ncnn3cc(-c4cnn(C)c4)cc23)cc1)c1ccc(Cl)cc1 [Compound 42] |
